Source: patent US8680075B2, “Methods and compositions for inhibiting cellular proliferation and surgical adhesion” (Novelmed Therapeutics, Inc., priority 2009, dated 2014)
“Also recorded” adds a separate entry of the source.

Assays:
platelets [1] = experiment: Platelet damage / platelet number after tubing loop (flow cytometry CD61/CD62P); assay type: cell-based, human; conditions: blood after tubing loop, FITC CD61 positive platelets
Protocol: (§1) Chemotactic peptides are produced at the injury site, which can attract inflammatory cells at the injury site causing inflammation. NM2040 was tested to determine if this compound would inhibit the production of the C3a and C5a. The compound was incubated with blood at 37 degree in a rotating tubing loops. Whole blood from a healthy donor was collected into a polypropylene tube containing 5 units of heparin per ml of whole blood. The whole blood was diluted 1:1 with plasmalyte and aliquoted in 2 ml aliquots with and without drug treatments. PVC tubings of 4 mm diameter were filled with 2.0 ml of the heparinized human blood and closed into a loop with a short piece of silicon tubing. Sample and control tubing loops were rotated vertically in a water bath for 2 hours at 37° C. After incubation, blood samples were transferred into 5 ml siliconized eppendorf tubes. […] The plasma samples were diluted to 5% with sample diluent buffer and the amounts of C3a and C5a were determined using ELISA assay kits following the manufacturer's instructions (Quidel Corporation, San Diego Calif.). […] In the same experiment, NM3015 was also evaluated. […]
Aliquots of blood following the tubing loop were stained with fluorescent labeled antibodies for flow cytometry studies. […] The samples were subjected to flow cytometry using CellQuest, BD-LSR I and the data were analyzed using WinList 5.0. […]

neutrophils = experiment: Neutrophil activation after tubing loop (flow cytometry CD15/CD11b); assay type: cell-based, human; conditions: blood after tubing loop
Protocol: as §1, with “tubing.” for “tubing. Sample and control tubing loops were rotated vertically in a water bath for 2 hours at 37° C. After incubation, blood samples were transferred into 5 ml siliconized eppendorf tubes.”
(§2) Aliquots of blood following the tubing loop were stained with fluorescent labeled antibodies for flow cytometry studies. […] The samples were subjected to flow cytometry using CellQuest, BD-LSR I and the data were analyzed using WinList 5.0. Ln Median was used for calculating the shift in CD11b staining for neutrophils and monocytes. % gated dual labeled cells were quantified for platelet populations.

alternative pathway = experiment: Alternative pathway (AP) activation; assay type: cell-based, human
Protocol: (§3) Chemotactic peptides are produced at the injury site, which can attract inflammatory cells at the injury site causing inflammation. NM2040 was tested to determine if this compound would inhibit the production of the C3a and C5a. The compound was incubated with blood at 37 degree in a rotating tubing loops. Whole blood from a healthy donor was collected into a polypropylene tube containing 5 units of heparin per ml of whole blood. The whole blood was diluted 1:1 with plasmalyte and aliquoted in 2 ml aliquots with and without drug treatments. PVC tubings of 4 mm diameter were filled with 2.0 ml of the heparinized human blood and closed into a loop with a short piece of silicon tubing. Sample and control tubing loops were rotated vertically in a water bath for 2 hours at 37° C. After incubation, blood samples were transferred into 5 ml siliconized eppendorf tubes. The samples were separated into two aliquots; one aliquot was subjected to flow cytometry studies and the other aliquot was centrifuged to separate the plasma for the measurement of C3a and C5a. The plasma samples were diluted to 5% with sample diluent buffer and the amounts of C3a and C5a were determined using ELISA assay kits following the manufacturer's instructions (Quidel Corporation, San Diego Calif.). […] In the same experiment, NM3015 was also evaluated. […]

[2] = test system: epidural fibrosis after lumbar laminectomy; experiment: Rat laminectomy epidural fibrosis model, Example 6; assay type: in vivo; conditions: two weeks after laminectomy
Excerpt: The scar tissue attachment to the spinal cord is believed to be the cause of long-term, recurrent pain following laminectomy procedures. The epidural fibrosis refers to the scar tissue that forms following a laminectomy procedure. Laminectomy refers to back surgery of the lamina. Scar tissue forms within the laminectomy site and binds the undersurface of the erector spinae muscles to the posterior and lateral surfaces of the dura mater and to the nerve roots exiting through the dura matter. Epidural fibrosis was investigated after lumbar laminectomy in rats. In this model, a laminectomy is performed at the lumbar 3 (L3) and 5 (L5) vertebrae and then the test agent is applied to the laminectomy site. Subsequently, the laminectomy sites are examined for fibrosis by gross dissection.
Laminectomies were performed at lumbar vertebrae L3 and L5 to provide auto-controls within each animal. Gelfoam-NM2040 mix was prepared and used on Laminectomy sites in rats. Lewis inbred rats were anesthetized isofluorane. The dorsal skin was incised and the paraspinal muscles were separated from the spinous processes of lumbar vertebrae L2 through L6 to expose the L3 and L5. The spinous processes of L3 and L5 were removed and the vertebral lamina was also removed creating a rectangular laminectomy defect. The test material was placed onto the laminectomy site. […] The site and the tissue were scored 0 to 2. […]

platelets [3] = experiment: Platelet activation after tubing loop (flow cytometry CD61/CD62P); assay type: cell-based, human; conditions: blood after tubing loop
Protocol: as §1, with “tubing.” for “tubing. Sample and control tubing loops were rotated vertically in a water bath for 2 hours at 37° C. After incubation, blood samples were transferred into 5 ml siliconized eppendorf tubes.”
as §2

C6 cells = experiment: Glioma (C6 cell) proliferation in cloning ring culture; assay type: cell-based; conditions: five days; for concentration of maximal effect on glioma proliferation: C6 cells
Protocol: In a six well plate, a cloning ring of 6 mm diameter was placed and 60 μl aliquot of cellular suspension (stock containing 320,000 cells/ml of C6 cells) was prepared and placed in the center of each well of a six well plate in the cloning ring. After 4 h, the media was removed and the cells were incubated with Opti-MEM 1× media with and without the compound. These cultures were incubated at 37° C. and with 10% CO2 for five days, following which the pictures were taken as shown in FIG. 2. The compound effect appears to be dose dependent with maximal effect shown at […]. The first panel is for controls (untreated), the second panel at 3 mg/ml, the third panel at 1.5 mg/ml, the fourth panel at 0.75 mg/ml, and the fifth panel at 0.36 mg/ml.

C5a = C5a formation in whole blood tubing loop (ELISA); assay type: cell-based; conditions: heparinized human whole blood 1:1 plasmalyte, tubing loop 2 hours 37° C.
Protocol: as §3

3T3 cells = experiment: 3T3 cell proliferation assay (Cy Quant fluorescence); assay type: cell-based; conditions: 1 to 600 μg/ml, 5 days, DMEM 10% FCS
Protocol: Approximately 50,000 cells were plated in a 96 well ELISA plate. The cells were allowed to grow in DMEM with 10% FCS media for 5 days, following which the cells were treated with Cy Quant assay and the inhibition of cellular proliferation was measured using the decreased fluorescence intensity. To evaluate the effect of various concentrations of NM2040 in the cellular proliferation assay, cultures were treated with concentrations ranging from 1 to 600 μg/ml. The total fluorescence intensity was plotted against the concentrations.

monocytes = experiment: Monocyte activation after tubing loop (flow cytometry CD14/CD11b); assay type: cell-based, human; conditions: blood after tubing loop
Protocol: as §1, with “tubing.” for “tubing. Sample and control tubing loops were rotated vertically in a water bath for 2 hours at 37° C. After incubation, blood samples were transferred into 5 ml siliconized eppendorf tubes.”
as §2

C3a = C3a formation in whole blood tubing loop (ELISA); assay type: cell-based; conditions: heparinized human whole blood 1:1 plasmalyte, tubing loop 2 hours 37° C.
Protocol: as §3

[4] = test system: epidural fibrosis after laminectomy; experiment: Rat laminectomy epidural fibrosis model, Example 8; assay type: in vivo
Protocol: Epidural fibrosis was investigated after laminectomies in adult Lewis rats. Laminectomies were performed at the lumbar 3 (L3) and 5 (L5) vertebrae. The test agent gel was applied to one site and saline (control) was applied to the other. Two weeks later, the laminectomy sites were examined for fibrosis by gross dissection as previously described. Briefly, rats were anesthetized. The dorsal skin was incised and the paraspinal muscles were separated from the spinous processes of lumbar vertebrae L2 through L6 to expose L3 and L5. The spinous processes of L3 and L5 and the vertebral lamina were removed, creating a rectangular laminectomy defect approximately 5×2 mm (FIG. 11A). The test material NM2040, or vehicle was placed onto the laminectomy site according to randomized, coded protocol (FIG. 11B). The formulation of NM2040 consisted of 10% gel foam powder, 20 mg/ml final concentration in sterile saline. The mixtures were placed in a syringe, autoclaved and allowed to cool to room temperature prior to placement into the laminectomy site. The fascia overlying the paraspinal muscles was sutured 5-0 polydoxanone PDS resorbable suture (Ethicon) and the skin incision was closed with 7.5 mm Michel wound clips. After two weeks, animals were anesthetized and subjected to gross evaluation. For gross evaluation, the wound site was reopened by incising the skin and separating the paraspinal muscles. Epidural scar formation was designated as the connective tissue between the test material and the dura mater. The thickness and toughness of the deep scar was evaluated by blunt dissection and scored 0 to 2.0 being the “no adhesions” with the dura mater clearly visible, 1 being a thin, lose connective tissue covering the dura that was easily removed, and 2 being a thick, dense tenacious adhesion that was difficult to impossible to remove without tearing the dura. Scoring was completed without knowledge of treatment at any of the laminectomy sites.

conjugate of dextran sulfate and 2-(butane-1-sulfonylamino)-3-[4-(4-piperidin-4-yl-butoxy)-phenyl]-propionic acid [NM2040]
effect on platelets (platelet damage / number) (platelets [1]): does not affect the platelets; also recorded: does not destroy platelets | neutrophil activation (CD11b shift) (neutrophils): significant inhibition of cellular activation | activation of the alternative pathway (alternative pathway): inhibits activation of the alternative pathway | adhesion scores compared to saline controls [2]: significantly lower | platelet activation (% gated CD61/CD62P dual labeled) (platelets [3]): significant inhibition of cellular activation | glioma proliferation, effect (C6 cells; C6 cells, 0.36, 0.75, 1.5 and 3 mg/ml): inhibitory at all doses | concentration of maximal effect on glioma proliferation (C6 cells; first statement): 3 µg/mL | concentration of maximal effect on glioma proliferation (C6 cells; second statement): ~1000 µg/mL | C5a production (C5a): prevent C3a and C5a production in a dose dependent manner | 3T3 cell proliferation (3T3 cells): Inhibits | monocyte activation (CD11b shift) (monocytes): significant inhibition of cellular activation | C3a production (C3a): prevent C3a and C5a production in a dose dependent manner | adhesion scores compared to treatment with vehicle ([4]; two weeks after laminectomy): significantly reduces adhesion scores | gross appearance of laminectomy site ([4]; two weeks after laminectomy): thin easily removed connective tissue above the dura to no adhesions | average gross evaluation score of epidural scar (0 to 2) ([4]; two weeks after laminectomy, gel at site, saline sites scored 2): 0.5 | histological sections of the vertebral column at L3 (Masson trichrome) ([4]; two weeks, compared to controls): smooth filling | MRI appearance of laminectomy site ([4]; two weeks, compared to saline controls): the tissue appears to be smooth
